Results from PubChem BioAssay (NCI).
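The compound was tested at five concentrations on cells cultured in 96-well plates, with a 48-hour exposure period. GI50 is the concentration that inhibits growth by half. TGI: total growth inhibition.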

Assays:
Test in all cases: NCI anticancer screen, dose series, 48 h
CCRF-CEM leukemia = test system: CCRF-CEM leukemia
COLO 205 colon = test system: COLO 205 colon
DU-145 prostate = test system: DU-145 prostate
HCC-2998 colon = test system: HCC-2998 colon
HCT-15 colon = test system: HCT-15 colon
IGROV1 ovarian = test system: IGROV1 ovarian
KM12 colon = test system: KM12 colon
M14 melanoma = test system: M14 melanoma
SK-OV-3 ovarian = test system: SK-OV-3 ovarian
T-47D breast = test system: T-47D breast

Row | SMILES | TGI (CCRF-CEM leukemia) | TGI (COLO 205 colon) | TGI (DU-145 prostate) | TGI (HCC-2998 colon) | TGI (HCT-15 colon) | TGI (IGROV1 ovarian) | TGI (KM12 colon) | TGI (M14 melanoma) | TGI (SK-OV-3 ovarian) | TGI (T-47D breast) | GI50 (COLO 205 colon) | GI50 (DU-145 prostate) | GI50 (HCC-2998 colon) | GI50 (HCT-15 colon) | GI50 (SK-OV-3 ovarian) | GI50 (T-47D breast) | GI50 (CCRF-CEM leukemia) | GI50 (IGROV1 ovarian) | GI50 (KM12 colon) | GI50 (M14 melanoma)
1 | CCOC(=O)C1=C(C(=O)OCC)SC2(S1)C(C(=O)OCC)=C(C(=O)OCC)Sc1c2ssc1=O | 2.06 µM | 5.15 µM | 2.2 µM | 5.89 µM | 2.72 µM | 2.57 µM | 10.3 µM | 4.94 µM | 10.9 µM | 4.62 µM |  |  |  |  |  |  |  |  |  | 
2 | COc1ccccc1C#C/C=C\C#Cc1ccccc1C#N | > 100 µM | 37.1 µM | > 100 µM | 47.4 µM | > 100 µM | 35.8 µM | 55.6 µM | 46.5 µM | > 100 µM | > 100 µM |  |  |  |  |  |  |  |  |  | 
3 | N#CC1(CCCI)CCCC1 | > 100 µM | > 100 µM |  | > 100 µM | > 100 µM | > 100 µM | > 100 µM | 50.4 µM | > 100 µM |  |  |  |  |  |  |  |  |  |  | 
4 | C[C@]12CC[C@H]3[C@@H](CC=C4C[C@@H](O)CC[C@@]43C)[C@@H]1C/C(=C\c1ccncc1)[C@@H]2O | 50.8 µM | 24.9 µM | 49.6 µM | > 100 µM | 58.9 µM | 73.5 µM | 31.2 µM | 40.6 µM | 79.6 µM | 42.5 µM |  |  |  |  |  |  |  |  |  | 
5 | Cc1[nH]c2ncn3[nH]c(=S)nc3c2c1Cc1ccccc1 | > 100 µM | > 100 µM | > 100 µM | > 100 µM | > 100 µM | > 100 µM | > 100 µM | > 100 µM | > 100 µM | > 100 µM |  |  |  |  |  |  |  |  |  | 
6 | Cc1ncc(C(=O)Nc2ccc(CN3CCN(C)CC3)c(C(F)(F)F)c2)cc1C#Cc1cnc(N)c2ccc(C#N)cc12 |  | > 100 µM | 2.34 µM | 24.7 µM | 1.5 µM | 0.23 µM |  |  | > 100 µM | > 100 µM | 0.0146 µM | 0.0157 µM | 2.29 µM | 0.0485 µM | 0.02 µM | 0.114 µM |  |  |  | 
7 | CC(C)CCN(CCC(C)C)CC(=O)Nc1ccc(S(=O)(=O)c2ccc(NC(=O)CN(CCC(C)C)CCC(C)C)cc2)cc1 | 3.87 µM |  | 6.16 µM | 9.71 µM | 3.89 µM | 4.5 µM | 3.25 µM | 4.01 µM | 88 µM | 4.29 µM |  | 2.29 µM | 3.2 µM | 1.29 µM | 28 µM | 1.4 µM | 1.06 µM | 1.64 µM | 1.62 µM | 1.58 µM
8 | O=C1Nc2cccc(Cl)c2/C1=C\c1cccnc1 | > 100 µM | 15.9 µM | 35.9 µM | 7.86 µM | > 100 µM |  | 25.9 µM | 19.6 µM | 15.3 µM | 16.6 µM |  |  |  |  |  |  |  |  |  | 
9 | O=C1N[C@H]2C(=O)c3c(Br)sc(Br)c3[C@H]2O1 | 3.63 µM | 8.17 µM | 28.9 µM | 24.2 µM | 4 µM | 25.3 µM | > 55.5 µM | 10.4 µM | 34.7 µM | 55 µM |  |  |  |  |  |  |  |  |  | 
10 | COC(=O)c1c(O)ccc2c1c1c(n2CCc2ccc(OC)c(OC)c2)C(=O)c2ccccc2C1=O | 45.2 µM | 11.1 µM | 29.5 µM | 15.7 µM | 29.3 µM | 29.9 µM | 25.6 µM | 31 µM | 38.6 µM | 31.9 µM |  |  |  |  |  |  |  |  |  | 
11 | Nc1ccc(Oc2ccc(C34CC5CC(C3)CC(c3ccc(Oc6ccc(N)cc6C(F)(F)F)cc3)(C5)C4)cc2)c(C(F)(F)F)c1 | > 100 µM | 37.1 µM | > 100 µM |  | > 100 µM | 37.9 µM | 67.6 µM | 33.4 µM | 35.4 µM | 64.5 µM |  |  |  |  |  |  |  |  |  | 
12 | Cc1csc2nc(-c3cccc([N+](=O)[O-])c3)c(/C=N/N=C(N)N)n12 |  | 3 µM | 4.28 µM | 0.861 µM | 3.71 µM | 3.19 µM | 4.86 µM | 3.1 µM | 3.33 µM | 8.06 µM |  |  |  |  |  |  |  |  |  | 
13 | CCCCCCCCCCCCc1ccc(S(=O)(=O)O)cc1.[Cu+2] | > 100 µM | > 100 µM | > 100 µM | > 100 µM | > 100 µM | > 100 µM | > 100 µM | > 100 µM | 22.8 µM | > 100 µM |  |  |  |  |  |  |  |  |  | 
14 | N#Cc1c(-c2ccc([N+](=O)[O-])cc2)c2c([nH]c1=O)-c1ccccc1CCC2 |  | > 100 µM | > 100 µM | 71.1 µM | > 100 µM | > 100 µM | > 100 µM | > 100 µM | > 100 µM | 70.5 µM |  |  |  |  |  |  |  |  |  | 
